Reference: patent US6716987B1, “Derivatives of benzofuran or benzodioxazole compounds” (Kyowa Hakko Kogyo Co., Ltd., priority 1995, dated 2004)

Tested on: cAMP-specific phosphodiesterase (PDE IV)
Assay: Inhibition of the PDE IV enzyme derived from a dog trachea
Format: biochemical
Conditions: test compound 10^−6 M; PDE IV from dog tracheal smooth muscle; substrate cAMP 1 μM
Procedure: cAMP-specific phosphodiesterase (PDE IV) was purified from a dog tracheal smooth muscle according to the method of Torphy et al. [Molecular Pharmacol., 37, 206-214 (1990)]. The PDE activity was measured by the following two steps according to the method of Kincaid and Manganiello et al. [Method in Enzymology (J. D. Corbin and R. A. Jonson, Eds.), 199, 457-470 (1988)]. Using [^3]cAMP (at a final concentration of 1 μM) as a substrate, the reaction was carried out in a standard mixture containing N,N-bis(2-hydroxyethyl)-2-aminoethanesulfonic acid (50 mM, pH=7.2), MgCl2 (1 mM), and soybean trypsin inhibitor (0.1 mg/ml). The reaction was initiated by adding the enzyme, followed by incubation at 30° C. for 10 to 30 minutes. After stopping the reaction with hydrochloric acid, the generated […] was completely converted to adenosine by 5′-nucleotidase.
The resultant was subjected to chromatography on DEAE-Sephadex A-25, and radio activity of the eluted [^3H] adenosine was counted using a scintillation counter. Each of the test drugs was dissolved in DMSO (final concentration 1.7%) and then added to the mixture.

COc1ccc(/C=C/c2ccncc2)c2cc(-c3ccncc3)oc12.Cl.Cl [Compound 83, (E)-7-Methoxy-2-(4-pyridyl)-4-[2-(4-pyridyl)ethenyl]-benzofuran.2 hydrochloride]
Enzyme Inhibitory Activity (%, 10^−6 M): 89%

COc1ccc(C=Cc2ccncc2)c2c1OC1(CCCC1)CC2.Cl [Compound 125, 8-Methoxy-5-[2-(4-pyridyl)ethenyl]-spiro[3,4-dihydrobenzopyran-2,1′-cyclopentane].hydrochloride]
Enzyme Inhibitory Activity (%, 10^−6 M): 71%

CCCCc1cc2c(C(=O)Cc3ccncc3)ccc(OC)c2o1.Cl [Compound 109, 2-Butyl-7-methoxy-4-[1-oxo-2-(4-pyridyl)ethyl]-benzofuran.hydrochloride]
Enzyme Inhibitory Activity (%, 10^−6 M): 68%

COc1ccc(C(=O)Nc2c(Cl)cncc2Cl)c2c1OCC2CC(=O)N1CCN(C)CC1.Cl (racemic) [Compound 17, (±)-4-[(3,5-Dichloro-4-pyridyl)aminocarbonyl]-7-methoxy-3-[(4-methylpiperazin-1-yl)carbonylmethyl]-2,3-dihydro-benzofuran.hydrochloride]
Enzyme Inhibitory Activity (%, 10^−6 M): 63%

COc1ccc(C(=O)Cc2ccncc2)c2c(-c3ccccc3)coc12.Cl [Compound 118, 7-Methoxy-4-[1-oxo-2-(4-pyridyl)ethyl]-3-phenyl-benzofuran.hydrochloride]
Enzyme Inhibitory Activity (%, 10^−6 M): 80%

COc1ccc(C(=O)Nc2c(Cl)cncc2Cl)c2cc(C#N)oc12 [Compound 34, 2-Cyano-4-(3,5-dichloropyridin-4-ylaminocarbonyl)-7-methoxybenzofuran]
Enzyme Inhibitory Activity (%, 10^−6 M): 100%

COc1ccc(C(=O)Nc2c(Cl)cncc2Cl)c2c1OCC2CC(=O)Nc1ncccn1 (racemic) [Compound 20, (±)-4-[(3,5-Dichloro-4-pyridyl)aminocarbonyl]-7-methoxy-3-[(2-pyrimidyl)aminocarbonyl]methyl-2,3-dihydro-benzofuran]
Enzyme Inhibitory Activity (%, 10^−6 M): 80%

COc1ccc(CCc2c(Cl)cncc2Cl)c2c1OC1(CCCC1)C2.CS(=O)(=O)O [Compound 52, 4-[2-(3,5-Dichloro-4-pyridyl)ethyl]-7-methoxy-spiro[2,3-dihydrobenzofuran-2,1′-cyclopentane].methanesulfonate]
Enzyme Inhibitory Activity (%, 10^−6 M): 86%

CCC1(CC)Cc2c(CCc3ccncc3)ccc(OC)c2O1.Cl [Compound 51, 2,2-Diethyl-7-methoxy-4-[2-(4-pyridyl)ethyl]-2,3-dihydrobenzofuran.hydrochloride]
Enzyme Inhibitory Activity (%, 10^−6 M): 67%

COc1ccc(C(=O)Nc2c(Cl)cncc2Cl)c2c1OCC2CC(=O)N1CCc2ccccc2C1 (racemic) [Compound 22, (±)-4-[(3,5-Dichloro-4-pyridyl)aminocarbonyl]-7-methoxy-3-[(1,2,3,4-tetrahydroisoquinolinyl)carbonyl]-methyl-2,3-dihydrobenzofuran]
Enzyme Inhibitory Activity (%, 10^−6 M): 85%

COc1ccc(C=Cc2ccncc2)c2c1OC1(CCCCC1)CC2.Cl [Compound 126, 8-Methoxy-5-[2-(4-pyridyl)ethenyl]-spiro[3,4-dihydrobenzopyran-2,1′-cyclohexane].hydrochloride]
Enzyme Inhibitory Activity (%, 10^−6 M): 58%

COc1ccc(C(=O)Cc2ccncc2)c2cc(-c3ccncc3)oc12.Cl.Cl [Compound 115, 7-Methoxy-4-[1-oxo-2-(4-pyridyl)ethyl]-2-(4-pyridyl)-benzofuran.2 hydrochloride]
Enzyme Inhibitory Activity (%, 10^−6 M): 85%

COc1ccc(C(=O)Nc2c(Cl)cncc2Cl)c2ccoc12 [Compound 33, 4-[(3,5-Dichloro-4-pyridyl)aminocarbonyl]-7-methoxy-benzofuran]
Enzyme Inhibitory Activity (%, 10^−6 M): 71%

COc1ccc(C(=O)Cc2ccccc2)c2cc(C(=O)c3ccccc3)oc12 [Compound 107, 2-Benzoyl-7-methoxy-4-(1-oxo-2-phenylethyl)benzofuran]
Enzyme Inhibitory Activity (%, 10^−6 M): 63%

COc1ccc(C(Cc2ccncc2)c2ccccc2)c2cc(-c3ccncc3)oc12.Cl (racemic) [Compound 66, (±)-7-Methoxy-4-[1-phenyl-2-(4-pyridyl)ethyl]-2-(4-pyridyl)benzofuran.hydrochloride]
Enzyme Inhibitory Activity (%, 10^−6 M): 49%

COc1ccc(/C=C/c2ccncc2)c2cc(-c3ccccc3)oc12.Cl [Compound 81, (E)-7-Methoxy-2-phenyl-4-[2-(4-pyridyl)ethenyl]-benzofuran.hydrochloride]
Enzyme Inhibitory Activity (%, 10^−6 M): 56%

COc1ccc(CCc2ccncc2)c2c1OC1(CCCC1)C2.Cl [Compound 53, 7-Methoxy-4-[2-(4-pyridyl)ethyl]-spiro[2,3-dihydro-benzofuran-2,1′-cyclopentane].hydrochloride]
Enzyme Inhibitory Activity (%, 10^−6 M): 84%

COc1ccc(C(=O)Nc2c(Cl)cncc2Cl)c2c1OCC2CC(=O)NCc1ccccn1 (racemic) [Compound 24, (±)-4-[(3,5-Dichloro-4-pyridyl)aminocarbonyl]-7-methoxy-3-[(2-pyridylmethyl)aminocarbonyl]methyl-2,3-dihydrobenzofuran]
Enzyme Inhibitory Activity (%, 10^−6 M): 80%

COc1ccc(C(=O)Cc2ccncc2)c2cc(CC(C)C)oc12.Cl [Compound 110, 7-Methoxy-2-(2-methylpropyl)-4-[1-oxo-2-(4-pyridyl)-ethyl]benzofuran.hydrochloride]
Enzyme Inhibitory Activity (%, 10^−6 M): 80%

COc1ccc(/C=C/c2ccncc2)c2c1OCC2C (racemic) [Compound 79, (E)-(±)-7-Methoxy-3-methyl-4-[2-(4-pyridyl)ethenyl]-2,3-dihydrobenzofuran]
Enzyme Inhibitory Activity (%, 10^−6 M): 45%

CCC1(CC)Cc2c(CCc3c(Cl)cncc3Cl)ccc(OC)c2O1.CS(=O)(=O)O [Compound 50, 4-[2-(3,5-Dichloro-4-pyridyl)ethyl]-2,2-diethyl-7-methoxy-2,3-dihydrobenzofuran.methanesulfonate]
Enzyme Inhibitory Activity (%, 10^−6 M): 69%

COc1ccc(CCc2ccncc2)c2c1OC1(CCCCC1)C2.Cl [Compound 55, 7-Methoxy-4-[2-(4-pyridyl)ethyl]-spiro[2,3-dihydro-benzofuran-2,1′-cyclohexane].hydrochloride]
Enzyme Inhibitory Activity (%, 10^−6 M): 86%

COc1ccc(C(=O)Cc2ccncc2)c2cc(-c3ccccc3)oc12.Cl [Compound 111, 7-Methoxy-4-[1-oxo-2-(4-pyridyl)ethyl]-2-phenyl-benzofuran.hydrochloride]
Enzyme Inhibitory Activity (%, 10^−6 M): 69%

COc1ccc(C(=O)Nc2ccncc2)c2cc(-c3ccncc3)oc12.Cl.Cl [Compound 39, 7-Methoxy-2-(4-pyridyl)-4-(4-pyridylaminocarbonyl)-benzofuran.2 hydrochloride]
Enzyme Inhibitory Activity (%, 10^−6 M): 77%

COc1ccc(CCc2c(Cl)cncc2Cl)c2c1OC1(CCCCC1)C2.CS(=O)(=O)O [Compound 54, 4-[2-(3,5-Dichloro-4-pyridyl)ethyl]-7-methoxy-spiro[2,3-dihydrobenzofuran-2,1′-cyclohexane].methanesulfonate]
Enzyme Inhibitory Activity (%, 10^−6 M): 81%

COc1ccc(C(Sc2ccncc2)c2ccccc2)c2c1OC(C)(C)C2 (racemic) [Compound 49, (±)-7-Methoxy-2,2-dimethyl-4-[1-phenyl-1-(4-pyridylthio)methyl]-2,3-dihydrobenzofuran]
Enzyme Inhibitory Activity (%, 10^−6 M): 40%

COc1ccc(C(=O)Nc2ccncc2)c2c1OC1(CCCC1)CC2.CS(=O)(=O)O [Compound 124, 8-Methoxy-5-(4-pyridylaminocarbonyl)-spiro[3,4-dihydrobenzopyran-2,1′-cyclopentane].methanesulfonate]
Enzyme Inhibitory Activity (%, 10^−6 M): 57%

CCOC(=O)CC1COc2c(OC)ccc(C(=O)Nc3ccncc3)c21 (racemic) [Compound 6, (±)-3-Ethoxycarbonylmethyl-7-methoxy-4-pyridylaminocarbonyl-2,3-dihydrobenzofuran]
Enzyme Inhibitory Activity (%, 10^−6 M): 66%

COc1ccc(C(Cc2ccncc2)c2ccccc2)c2c1OC1(CCCC1)O2.Cl (stereo not shown) [Compound 137, 4-Methoxy-7-[1-phenyl-2-(4-pyridyl)ethyl]-spiro[1,3-benzodioxole-2,1′-cyclopentane].hydrochloride]
Enzyme Inhibitory Activity (%, 10^−6 M): 61%

COc1ccc(C(=O)Cc2ccncc2)c2c1OC1(CCCC1)CC2.Cl [Compound 127, 8-Methoxy-5-[1-oxo-2-(4-pyridyl)ethyl]-spiro[3,4-dihydrobenzopyran-2,1′-cyclopentane].hydrochloride]
Enzyme Inhibitory Activity (%, 10^−6 M): 70%

COc1ccc(C(C#N)Cc2ccncc2)c2c1OC1(CCCC1)C2.Cl (racemic) [Compound 64, (±)-4-[1-Cyano-2-(4-pyridyl)ethyl]-7-methoxy-spiro[2,3-dihydrobenzofuran-2,1′-cyclopentane].hydrochloride]
Enzyme Inhibitory Activity (%, 10^−6 M): 78%

CCC1(CC)Cc2c(/C=C/c3c(Cl)cncc3Cl)ccc(OC)c2O1.CS(=O)(=O)O [Compound 71, (E)-2,2-Diethyl-7-methoxy-4-[2-(3,5-dichloro-4-pyridyl)ethenyl]-2,3-dihydrobenzofuran.methanesulfonate]
Enzyme Inhibitory Activity (%, 10^−6 M): 87%

COc1ccc(/C=C/c2ccncc2)c2c1OC1(CCCCC1)C2.Cl [Compound 77, (E)-7-Methoxy-4-[2-(4-pyridyl)ethenyl]-spiro[2,3-dihydrobenzofuran-2,1′-cyclohexane].hydrochloride]
Enzyme Inhibitory Activity (%, 10^−6 M): 87%

CCC1(CC)Cc2c(C(=O)Cc3ccncc3)ccc(OC)c2O1.Cl [Compound 98, 2,2-Diethyl-7-methoxy-4-[1-oxo-2-(4-pyridyl)ethyl]-2,3-dihydrobenzofuran.hydrochloride]
Enzyme Inhibitory Activity (%, 10^−6 M): 85%
